# Results from patent publication US20110160250A1, “CRYSTALLINE FORMS OF A FACTOR XA INHIBITOR” (Millennium Pharmaceuticals, Inc., priority 2009, published 2011).
# Like-named read-outs stand apart in the source and are kept apart here.
# Assays:
# [1] = Pharmacokinetics of Compound I in rat after intravenous and oral administration (plasma and urine LC/MS/MS, noncompartmental analysis); assay type: in vivo, male Sprague-Dawley rats; conditions: mean ± SD; for half-life: read-out: T1/2 (terminal half-life) (converted); for Vd: iv
# Description: (§1) The following experiments were conducted using samples of Compound I prepared by a method disclosed in U.S. Pat. No. 7,763,608, which is incorporated by reference in its entirety.
# Compound I was used in the rat investigation. An intravenous (IV) and oral (PO) dose of Compound I (1.0 and 10 mg/kg, respectively) was prepared. The IV dose was solubilized in 50% PEG300 to yield a final concentration of 1.0 mg/mL with a final pH of 5.13. The PO dose was suspended in 0.5% methylcellulose at a concentration of 2.0 mg/mL with a final pH of 2.70.
# (§2) A total of six male Sprague-Dawley rats (n=3/dosing group) from Charles River Laboratories (Hollister, Calif.), three male beagle dogs from Marshall BioResources (North Rose, N.Y.) and three male rhesus monkeys were utilized. All surgical procedures in rat (femoral and jugular vein catheterizations) were performed 8 days prior to utilization in the study and rats were acclimated in-house 5 days prior to utilization. Dogs were acclimated in-house at least seven days prior to utilization and were returned to the colony at the completion of the study. Monkey studies were conducted by an off-site contract laboratory.
# (§3) All animals were fasted from the afternoon prior to study initiation to two hours post-dose (approximately 18 hours). Water was provided ad libitum. All animal rooms were on a 12 hour light-dark cycles (6 A.M. to 6 P.M.). On the morning of experimentation, animals were weighed. Rat femoral and jugular (IV only) vein blood lines were exteriorized and attached to access ports. Dogs were weighed and shaved at blood sampling and IV dosing sites (along both cephalic and saphenous veins).
# (§4) All animals were dosed based on individual weights with a PO gavage volume of 5.0 mL/kg and an IV bolus dose volume of 1.0 mL/kg. Blood samples were obtained on 3.8% TSC (1:10 dilution) over a 24, 56, and 96 hour period post-dosing for the rat, dog, and monkey, respectively. Blood samples were centrifuged for platelet poor plasma, and resulting plasma was stored at −20° C. until sample analysis. Rat urine samples were collected on 200 μL of 2% boric acid from animals in the IV group at 0 (overnight), 10, and 24 hours post-dose. At collection times, urine volume and water consumption was recorded. Urine samples were stored at −20° C. until sample analysis.
# (§5) Plasma and urine samples were analyzed for Compound I concentration using a liquid chromatography tandem mass spectrometry (LC/MS/MS). In brief, plasma and urine samples were processed in a 96-well Captiva™ filter plate (0.2 μm, Varian, Inc., Palo Alto, Calif.). Aliquots of plasma samples were precipitated with acetonitrile containing 500 ng/mL of N-(2-(5-chloropyridin-2-ylcarbaomoyl)-4-methoxyphenyl)-4-(N,N-dimethylcarbamimidoyl)-2-fluorobenzamide, an internal standard. Aliquots of urine samples were diluted with plasma before mixing with acetonitrile containing internal standard. The mixture was vortexed and refrigerated at 4° C. for 30 minutes to allow complete protein precipitation. The mixture was filtered into a 96-well collection plate. The filtrate was injected onto a Sciex API3000 LC/MS/MS equipped with a turbo-ion spray source. Compound I and N-(2-(5-chloropyridin-2-ylcarbaomoyl)-4-methoxyphenyl)-4-(N,N-dimethylcarbamimidoyl)-2-fluorobenzamide were separated on a Thermo Hypersil-Keystone Betasil C18 column (4.6×100 mm, 5 μm; Fisher Scientific, Houston, Tex.). A mobile phase gradient mixture of 90% mobile phase A (0.5% formic acid in water) and 10% mobile phase B (0.5% formic acid in 90% acetonitrile) to 40% mobile phase B (programmed over 2.8 minutes). The peak areas of the m/z 411→250 product ion (Compound I) were measured against those of the m/z 470→342 product ion (N-(2-(5-chloropyridin-2-ylcarbaomoyl)-4-methoxyphenyl)-4-(N,N-dimethylcarbamimidoyl)-2-fluorobenzamide) in positive ion mode. The analytical range was 0.500 to 10,000 ng/mL.
# (§6) Sample Compound I concentrations below the lower limit of quantitation (LLQ) were reported as <0.500 ng/mL. […]
# [2] = Pharmacokinetics of Compound I in monkey after intravenous and oral administration (plasma LC/MS/MS, noncompartmental analysis); assay type: in vivo, male rhesus monkeys; conditions: mean ± SD; for Vd: iv
# Description: as §1
# (§7) For the dog and monkey study, Compound I was also used. An IV and PO dose of Compound I (1.0 and 5.0 mg/kg, respectively) was prepared. The IV dose was formulated similarly to that used in the rat study (50% PEG300 in water). The PO dose was suspended in 0.5% methylcellulose at a concentration of 1.0 mg/mL with a final pH of approximately 3.50.
# as §2, §3, §4, §5, §6
# [3] = Pharmacokinetics of Compound I in dog after intravenous and oral administration (plasma LC/MS/MS, noncompartmental analysis); assay type: in vivo, male beagle dogs; conditions: mean ± SD; for Vd: iv
# Description: as §1, §7, §2, §3, §4, §5, §6
# [4] = male, Sprague-Dawley, plasma, intravenous, 1 mg/kg
# [5] = male, Sprague-Dawley, plasma, oral, 10 mg/kg
# [6] = male, rhesus, rhesus monkey, plasma, intravenous, 1 mg/kg
# [7] = male, rhesus, rhesus monkey, plasma, oral, 5 mg/kg
# [8] = male, beagle, plasma, intravenous, 1 mg/kg
# [9] = male, beagle, plasma, oral, 5 mg/kg
structure (smiles),measurement,setting,value
"O=C(NCc1cn(-c2ccc(-n3ccccc3=O)cc2)cn1)c1ccc(Cl)s1 [Compound I, 5-chloro-N-((1-(4-(2-oxopyridin-1(2H)-yl)phenyl)-1H-imidazol-4-yl)methyl)thiophene-2-carboxamide]",Dose excreted unchanged in urine,"[1]; intravenous, 1 mg/kg",0.248 ± 0.019%
same,AUC,[1]; [4],5380 ± 1190 ng·h/mL
same,AUC(0-inf),[1]; [4],5400 ± 1160 ng·h/mL
same,clearance,"[1]; male, Sprague-Dawley, plasma, intravenous, 1 mg/kg, read-out: CL (systemic clearance)",3.19 ± 0.734 mL/min/kg
same,half-life,[1]; [4],172 ± 84 min
same,Vd,"[1]; male, Sprague-Dawley, plasma, 1 mg/kg, intravenous, 1 mg/kg, read-out: Vss (volume of distribution at steady-state)",0.368 ± 0.026 L/kg
same,Vd,"[1]; male, Sprague-Dawley, plasma, 1 mg/kg, intravenous, 1 mg/kg, read-out: Vz (volume of distribution)",0.757 ± 0.328 L/kg
same,AUC,[1]; [5],68500 ± 12500 ng·h/mL
same,AUC(0-inf),[1]; [5],68600 ± 12500 ng·h/mL
same,Cmax,[1]; [5],28900 ± 2080 ng/mL
same,Tmax,[1]; [5],15 min
same,half-life,[1]; [5],163 ± 17.4 min
same,AUC/D (dose-normalized AUC(0-inf)),"[1]; oral, 10 mg/kg",6859 ± 1249 kg·h/mL
same,AUC,[2]; [6],12600 ± 6000 ng·h/mL
same,AUC(0-inf),[2]; [6],12600 ± 6000 ng·h/mL
same,clearance,"[2]; male, rhesus, rhesus monkey, plasma, intravenous, 1 mg/kg, read-out: CL (systemic clearance)",1.66 ± 1.06 mL/min/kg
same,Vd,"[2]; male, rhesus, rhesus monkey, plasma, 1 mg/kg, intravenous, 1 mg/kg, read-out: Vss (volume of distribution at steady-state)",0.353 ± 0.059 L/kg
same,Vd,"[2]; male, rhesus, rhesus monkey, plasma, 1 mg/kg, intravenous, 1 mg/kg, read-out: Vz (volume of distribution)",2.31 ± 1.71 L/kg
same,AUC,[2]; [7],42100 ± 17200 ng·h/mL
same,AUC(0-inf),[2]; [7],42200 ± 17200 ng·h/mL
same,Cmax,[2]; [7],6040 ± 1880 ng/mL
same,Tmax,[2]; [7],2 h
same,AUC/D (dose-normalized AUC(0-inf)),"[2]; oral, 5 mg/kg",8430 ± 3449 kg·h/mL
same,AUC,[3]; [8],1620 ± 360 ng·h/mL
same,AUC(0-inf),[3]; [8],1620 ± 363 ng·h/mL
same,clearance,"[3]; male, beagle, plasma, intravenous, 1 mg/kg, read-out: CL (systemic clearance)",10.7 ± 2.69 mL/min/kg
same,Vd,"[3]; male, beagle, plasma, 1 mg/kg, intravenous, 1 mg/kg, read-out: Vss (volume of distribution at steady-state)",0.843 ± 0.288 L/kg
same,Vd,"[3]; male, beagle, plasma, 1 mg/kg, intravenous, 1 mg/kg, read-out: Vz (volume of distribution)",2.73 ± 2.45 L/kg
same,AUC,[3]; [9],5460 ± 1470 ng·h/mL
same,AUC(0-inf),[3]; [9],5480 ± 1480 ng·h/mL
same,Cmax,[3]; [9],2720 ± 474 ng/mL
same,Tmax,[3]; [9],35 ± 22.9 min
same,AUC/D (dose-normalized AUC(0-inf)),"[3]; oral, 5 mg/kg",1095 ± 295 kg·h/mL
